In patent publication US8361971B2, “Tablet formulation of ezatiostat” (Telik, Inc., priority 2010, dated 2013):
Blank lines part the entries; values can stand above or below the compound they belong to.

Tests used:
Format in all cases: physicochemical
[1] = Description (appearance) of tablets on storage
Procedure: (§1) Tablets of ansolvate form D, were packaged with and without desiccant (Sorb-It Cannister, 1 gram). Fifty tablets were packaged in a round, white 1500 mL bottle with a screw cap over an induction seal. Impurities were assayed by HPLC. When stored at 25° C./60% RH with desiccant for 3 months, no increase in total impurities was observed. When stored at 40° C./75% RH with desiccant for 3 months, total impurities increased only by 0.3%. When stored at 40° C./75% RH without desiccant for 3 months, total impurities still increased by 1.1%. As tabulated below, the presence of desiccant appears to further increase the stability of the ansolvate form D. Even though the dissolution rate of tablets containing polymorph D from one batch was below specification (<70%) at an initial test as well as after 3 months at 25° C./60% RH with desiccant, the subsequent batches met the required specification.

[2] = Assay and impurities by HPLC of tablets on storage; design: key to Individual Impurities RRT = 0.74 / Individual Impurities RRT = 0.83 / TLK 236 RRT = 0.88 / Individual Impurities RRT = 0.94 / Individual Impurities RRT = 0.96 / Total impurities / Individual Impurities RRT = 0.80 / Individual Impurities RRT = 0.81 / Individual Impurities RRT = 0.86 / Individual Impurities RRT = 0.99: impurity content in %
Description: As used herein, “impurity” refers to one or more of: TLK 236, another polymorphic form of ezatiostat hydrochloride including without limitation form A, B, C, E, or F, and any other compound other than ezatiostat hydrochloride ansolvate, which may be identified by HPLC. TLK 236 is a monoester derived from the partial hydrolysis of ezatiostat where the phenyl glycine moiety remains esterified.
(§2) As described above, form E converts to form B simply during tableting.
as §1

[3] = Tablet dissolution (Q at 45 min); conditions: for Dissolution, Mean at 45 min: tablets
Description: Without being bound by theory, a higher dissolution rate relates to a higher amount of the active agent in the gastric fluid, which in turn relates to higher bioavailability of the active agent. A high bioavailability is desired, for example and without limitation, for reducing inter patient variability of drug exposure for a orally administered agent such as ezatiostat hydrochloride. […] The aqueous solubility can be measured in a variety of aqueous solvents, including without limitation, water, 0.9% aqueous NaCl, 5% dextrose for injection, phosphate buffered saline, and generally aqueous solutions having a pH of less than about 5. Such solvents may include suitable buffers and other salts. […]
as §1

[4] = Water content of tablets on storage
Procedure: Karl Fischer analyses for water determination were performed on a Mettler Toledo DL39 Karl Fischer titrator. About 10-15 mg of sample was placed in the KF titration vessel containing approximately 100 mL of Hydranal®—Coulomat AD reagent and mixed for 60 seconds to ensure dissolution. The dissolved sample was then titrated by means of a generator electrode which produces iodine by electrochemical oxidation. […]
as §1

[5] = X-ray diffraction, polymorphic form in tablets; conditions: for X-ray Diffraction: tablets
Procedure: X-ray powder diffraction (XRPD) analyses were performed on a Shimadzu XRD-6000 X-ray powder diffractometer using Cu Kα radiation from a long fine focus X-ray tube, operated at 40 kV, 40 mA. The divergence and scattering slits were set at 1° and the receiving slit was set at 0.15 mm. Diffracted radiation was detected by a NaI scintillation detector. A θ-2θ continuous scan at 3°/min (0.4 sec/0.02° step) from 2.5°-40° 2θ was used. A silicon standard was analyzed to check alignment of the instrument. Data were collected and analyzed using XRD-6000 v.4.1 software.
Stress experiments: solids were stressed under different temperature and/or relative humidity (RH) environments for a measured time period. Specific RH values were achieved by placing the sample inside sealed chambers containing saturated salt solutions. Samples were analyzed by XRPD immediately after removal from the stress environment.
as §2, §1

[6] = Assay and impurities by HPLC of tablets on storage; design: key to Individual Impurities RRT = 0.74 / TLK 236 RRT = 0.88 / Individual Impurities RRT = 0.96 / Total impurities: impurity content in %; conditions: 6 Month at 40° C./75% RH without desiccant, hydrochloride
[7] = 3 Month at 40° C./75% RH without desiccant
[8] = 6 Month at 40° C./75% RH without desiccant, hydrochloride
[9] = 3 Month at 40° C./75% RH without desiccant, hydrochloride
[10] = 3 Month at 25° C./60% RH with desiccant
[11] = 3 Month at 40° C./75% RH with desiccant
[12] = 3 Month at 40° C./75% RH without desiccant, listed as Form D Ansolvate, hydrochloride
[13] = Initial, listed as Form D Ansolvate, hydrochloride

- Description [1, 7]: Off-white
- Description [1, 8]: Off-white
- Description ([1]; Initial): White round
- Assay (HPLC) [2, 9]: 94.1 % Label Claim
- Individual Impurities RRT = 0.74 [2, 9]: 0.16
- Individual Impurities RRT = 0.80 [2, 9]: 0.08
- Individual Impurities RRT = 0.81 [2, 9]: 0.07
- Individual Impurities RRT = 0.83 [2, 9]: 0.10
- Individual Impurities RRT = 0.94 [2, 9]: 0.07
- Individual Impurities RRT = 0.96 [2, 9]: 0.16
- Individual Impurities RRT = 0.99 [2, 9]: 0.07
- TLK 236 RRT = 0.88 [2, 9]: 1.99
- Total impurities [2, 9]: 2.7
- Individual Impurities RRT = 0.80 [2, 8]: 0.14
- Individual Impurities RRT = 0.81 [2, 8]: 0.05
- Assay (HPLC) ([2]; Initial, hydrochloride): 97.2 % Label Claim
- Individual Impurities RRT = 0.74 ([2]; Initial, hydrochloride): 0.13
- Individual Impurities RRT = 0.83 ([2]; Initial, hydrochloride): 0.46
- Individual Impurities RRT = 0.96 ([2]; Initial, hydrochloride): 0.16
- TLK 236 RRT = 0.88 ([2]; Initial, hydrochloride): 0.45
- Total impurities ([2]; Initial, hydrochloride): 1.2
- Dissolution, Mean at 45 min [3, 9]: Mean = 74 % of label claim
- Dissolution, Mean at 45 min [3, 8]: Mean = 71 % of label claim
- Dissolution, Mean at 45 min ([3]; Initial, hydrochloride): Mean = 12 % of label claim
- Water Content [4, 9]: 1.7%
- Water Content [4, 8]: 1.9%
- Water Content ([4]; Initial, hydrochloride): 2.1%
- X-ray Diffraction [5, 9]: Polymorph A
- X-ray Diffraction [5, 8]: Polymorph A
- X-ray Diffraction ([5]; Initial, hydrochloride): Polymorph A
- Assay (HPLC) [6]: 91.5 % Label Claim
- Individual Impurities RRT = 0.59/0.62 [6]: 0.07
- Individual Impurities RRT = 0.74 [6]: 0.15
- Individual Impurities RRT = 0.96 [6]: 0.21
- TLK 236 RRT = 0.88 [6]: 2.92
- Total impurities [6]: 3.5
SMILES: CCOC(=O)[C@@H](N)CCC(=O)N[C@@H](CSCc1ccccc1)C(=O)N[C@@H](C(=O)OCC)c1ccccc1.Cl [Polymorph Form A, ezatiostat hydrochloride]
- polymorphic conversion during tablet manufacture ([5]; during tablet manufacture, listed as solvate form A, hydrochloride): converting into a mixture of forms A and D during manufacture

- Description [1, 10]: White round
- Description [1, 11]: Off-white
- Description [1, 7]: Off-white
- Description [1, 8]: Brown round
- Description ([1]; Initial): White round
- Assay (HPLC) [2, 10]: 99.7 % Label Claim
- Individual Impurities RRT = 0.74/0.72 [2, 10]: 0.16
- Individual Impurities RRT = 0.96 [2, 10]: 0.19
- TLK 236 RRT = 0.88 [2, 10]: 0.34
- Total impurities [2, 10]: 0.7
- Assay (HPLC) [2, 11]: 100.8 % Label Claim
- Individual Impurities RRT = 0.74/0.72 [2, 11]: 0.16
- Individual Impurities RRT = 0.83 [2, 11]: 0.09
- Individual Impurities RRT = 0.94 [2, 11]: 0.06
- Individual Impurities RRT = 0.96 [2, 11]: 0.19
- TLK 236 RRT = 0.88 [2, 11]: 0.53
- Total impurities [2, 11]: 1.0
- Individual Impurities RRT = 0.74/0.72 [2, 7]: 0.18
- Assay (HPLC) [2, 9]: 100.3 % Label Claim
- Individual Impurities RRT = 0.74 [2, 9]: 0.21
- Individual Impurities RRT = 0.83 [2, 9]: 0.07
- Individual Impurities RRT = 0.94 [2, 9]: 0.07
- Individual Impurities RRT = 0.96 [2, 9]: 0.19
- TLK 236 RRT = 0.88 [2, 9]: 1.33
- Total impurities [2, 9]: 1.9
- Assay (HPLC) [2, 12]: 100.3 % Label Claim
- Individual Impurities RRT = 0.83 [2, 12]: 0.08
- Individual Impurities RRT = 0.94 [2, 12]: 0.07
- Individual Impurities RRT = 0.96 [2, 12]: 0.18
- TLK 236 RRT = 0.88 [2, 12]: 1.3
- Total impurities [2, 12]: 1.8
- Individual Impurities RRT = 0.83 [2, 8]: 0.09
- increase in total impurities ([2]; 25° C./60% RH with desiccant for 3 months): no increase
- increase in total impurities ([2]; 40° C./75% RH with desiccant for 3 months): 0.3%
- increase in total impurities ([2]; 40° C./75% RH without desiccant for 3 months): 1.1%
- Individual Impurities RRT = 0.74/0.72 ([2]; Initial): 0.21
- Assay (HPLC) ([2]; Initial, hydrochloride): 101.4 % Label Claim
- Individual Impurities RRT = 0.74 ([2]; Initial, hydrochloride): 0.21
- Individual Impurities RRT = 0.96 ([2]; Initial, hydrochloride): 0.18
- TLK 236 RRT = 0.88 ([2]; Initial, hydrochloride): 0.35
- Total impurities ([2]; Initial, hydrochloride): 0.7
- Assay (HPLC) [2, 13]: 101.4 % Label Claim
- Individual Impurities RRT = 0.96 [2, 13]: 0.18
- TLK 236 RRT = 0.88 [2, 13]: 0.35
- Total impurities [2, 13]: 0.7
- Dissolution, Mean at 45 min ([3]; 3 Month at 25° C./60% RH with desiccant, listed as Form D Ansolvate, hydrochloride): Mean = 46 % of label claim
- Dissolution, Mean at 45 min ([3]; 3 Month at 25° C./60% RH with desiccant, listed as polymorph D, hydrochloride): < 70 % of label claim
- Dissolution, Mean at 45 min [3, 11]: Mean = 76 % of label claim
- Dissolution, Mean at 45 min [3, 9]: Mean = 88 % of label claim
- Dissolution, Mean at 45 min [3, 12]: Mean = 88 % of label claim
- Dissolution, Mean at 45 min [3, 8]: Mean = 81 % of label claim
- Dissolution, Mean at 45 min ([3]; Initial, hydrochloride): Mean = 51 % of label claim
- Dissolution, Mean at 45 min [3, 13]: Mean = 51 % of label claim
- Dissolution, Mean at 45 min ([3]; Initial, listed as polymorph D, hydrochloride): < 70 % of label claim
- Water Content [4, 10]: 0.5%
- Water Content [4, 11]: 0.6%
- Water Content [4, 9]: 0.8%
- Water Content [4, 12]: 0.8%
- Water Content [4, 8]: 0.8%
- Water Content ([4]; Initial, hydrochloride): 0.9%
- Water Content [4, 13]: 0.9%
- X-ray Diffraction [5, 10]: Polymorph D
- X-ray Diffraction [5, 11]: Polymorph D
- X-ray Diffraction [5, 9]: Polymorph D
- X-ray Diffraction [5, 12]: Polymorph D
- X-ray Diffraction [5, 8]: Polymorph D
- X-ray Diffraction ([5]; Initial, hydrochloride): Polymorph D
- X-ray Diffraction [5, 13]: Polymorph D
- Assay (HPLC) [6]: 96.5 % Label Claim
- Individual Impurities RRT = 0.59/0.62 [6]: 0.08
- Individual Impurities RRT = 0.74 [6]: 0.20
- Individual Impurities RRT = 0.96 [6]: 0.23
- TLK 236 RRT = 0.88 [6]: 2.07
- Total impurities [6]: 2.7
SMILES: CCOC(=O)[C@@H](N)CCC(=O)N[C@@H](CSCc1ccccc1)C(=O)N[C@@H](C(=O)OCC)c1ccccc1.Cl [Polymorph Form D, ezatiostat hydrochloride]
- aqueous dissolution rate ([3]; as part of a tablet, measured in 0.1 molar HCl): higher aqueous dissolution rate than polymorphic form E
- polymorphic conversion on storage ([5]; 40° C. and 75% RH without a desiccant, form D 6 months, form E 3 months, listed as ansolvate form D, hydrochloride): resistance to conversion to a solvate form

SMILES: CCOC(=O)[C@@H](N)CCC(=O)N[C@@H](CSCc1ccccc1)C(=O)N[C@@H](C(=O)OCC)c1ccccc1.Cl [Polymorphic form B, ezatiostat hydrochloride]
- rate of decomposition relative to ansolvate form D ([2]; Total impurities of Tables 5-7): more than double the rate of decomposition of the ansolvate form D
